Columns and labels:
[1] = target: human recombinant IRAK4 protein (Homo sapiens (Human), UniProt Q9NWZ3); assay: IRAK4 enzyme assay (mass spectrometry readout); format: biochemical; conditions: 3 mM ATP, 0.2 nM enzyme; geometric mean of at least n=2, * single experiment
Method: Potency of IRAK4 Inhibitor Compounds in IRAK4 Enzyme Assay
The inhibitory activity of compounds against IRAK4 were determined in an enzymatic assay using mass spectrometry readout. Ten point half-log compound concentration response curves, with a top concentration of 1 μM or 10 μM, were generated from 10 mM stocks of compound solubilized in DMSO using an Echo 655 (Labcyte Inc) and added to 384 well assay plates (Greiner #781280). To the assay plates, 10 μL of human recombinant IRAK4 protein (Life Technologies #PV4002) diluted to a final concentration of 0.2 nM in assay buffer (50 mM Tris-HCl pH 7.4, 10 mM MgCl, 5 mM glutathione, 0.01% BSA, 3 mM ATP) was added. The enzyme was incubated with the compounds at room temperature for 15 minutes before a peptide substrate ([…], Innovagen custom synthesis, 10 mM in DMSO) was added to each well to a final concentration of 10 μM using an Echo 655 (Labcyte Inc). After two hours at room temperature, the reaction was stopped with 90 μL of 0.4% formic acid (Merck #33015). The unphosphorylated and phosphorylated peptide were measured by LC-MS/MS on a Waters TQ-S mass spectrometer. Peaks were integrated using the TargetLynx software and the ratios between phosphorylated and unphosphorylated peptides were calculated. Curves were fitted and compound potencies determined in Genedata Screener 15 (Genedata AG). Data presented are the geometric mean of at least n=2, or as denoted by an * are obtained from a single experiment.

[2] = target: IRAK4 auto-phosphorylation (Homo sapiens (Human), UniProt Q9NWZ3); assay: IRAK4 phosphorylation cell assay in IL-1β-stimulated Karpas-299 cells; format: cell-based; conditions: IL-1β 22.7 ng/mL, pIRAK4 (Thr345/Ser346), geometric mean of at least 2 experiments
Sequence of IRAK4 auto-phosphorylation (Q9NWZ3 whole entry): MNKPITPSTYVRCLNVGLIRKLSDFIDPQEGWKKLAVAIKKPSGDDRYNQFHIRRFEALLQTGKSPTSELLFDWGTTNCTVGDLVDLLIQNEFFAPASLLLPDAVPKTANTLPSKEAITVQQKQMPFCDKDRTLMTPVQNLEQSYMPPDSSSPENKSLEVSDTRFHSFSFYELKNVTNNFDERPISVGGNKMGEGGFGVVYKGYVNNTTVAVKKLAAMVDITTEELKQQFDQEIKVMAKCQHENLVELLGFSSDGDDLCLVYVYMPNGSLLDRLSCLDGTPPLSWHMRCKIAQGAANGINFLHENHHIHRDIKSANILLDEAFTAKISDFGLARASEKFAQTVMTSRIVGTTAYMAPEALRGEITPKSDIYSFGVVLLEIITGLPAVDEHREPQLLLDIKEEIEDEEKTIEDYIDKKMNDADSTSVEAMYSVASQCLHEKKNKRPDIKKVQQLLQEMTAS
Method: IRAK4 Phosphorylation Cell Assay
The activation of IRAK4 by TLR or IL-1R ligands leads to IRAK4 auto-phosphorylation, which can be prevented by IRAK4 kinase inhibitors. The effect of IRAK4 inhibitor compounds on IRAK4 auto-phosphorylation was assessed in IL-1β-stimulated Karpas-299 cells as a measurement of cellular potency. Karpas-299 cells were cultured in RPMI 1640 (Gibco 61870-010) containing 10% FBS (Gibco #10270). Cells were plated at 2×10^4 cells per well in poly-D-lysine coated 384 well plates (Corning #356663) to which compounds had been added at various concentrations (10 point half log dose response with a final top concentration of 30 μM) using an Echo 655 (Labcyte Inc). Cells were centrifuged (250 g, 4 mins), incubated at 37° C. for 1 h, then stimulated with 22.7 ng/mL recombinant IL-1β (R&D Systems, #201-LB-025) at 37° C. for 10 mins, followed by fixation in 4% paraformaldehyde for 10 mins and permeabilization in ice-cold 70% MeOH for 30 mins. Cells were washed twice with phosphate-buffered saline (PBS) on a BlueWasher (BlueCatBio) then blocked with PBS containing 10% FBS for 20 mins. Blocking solution was removed with a BlueWasher and cells were stained with anti-pIRAK4 (Thr345/Ser346) (CST, #11927, 1:400) in blocking buffer with 0.05% Tween-20 for 1 h, then washed twice with PBS containing 0.05% Tween-20 on a BlueWasher, followed by staining with a Alexa 647-conjugated secondary anti-rabbit IgG antibody (CST, #4414, 1:2,000) and Hoechst 33342 (Sigma, 1:2,000) in blocking buffer with 0.05% Tween-20 for 30 mins. Finally, the cells were washed twice with PBS containing 0.05% Tween-20 and imaged on an ImageXpress Micro (Molecular Devices) with a 10× air objective using the appropriate filters. Images were analysed in Columbus (PerkinElmer) and the fluorescence intensity per cell from the secondary antibody was quantified. The quantified data were analysed in Genedata Screener 15 (Genedata AG). […] IC50 values are the geometric mean of at least 2 experiments.

Sequence of human recombinant IRAK4 protein (Q9NWZ3 whole entry): as above

Compound	IC50 [1] [nM]	IC50 [2] [nM]
COc1cc2nn([C@H]3CCC[C@](C)(O)C3)cc2cc1C(=O)Nc1cnn2cccnc12 (single isomer, unassigned) [Example 52]	5.5	96
COc1cc2nn([C@@H]3CC[C@H](O)[C@@H](C)C3)cc2cc1C(=O)Nc1cnc2cccnn12 (single isomer, unassigned) [Example 83]	2.1	34
COc1cc2nn([C@@H]3CC[C@]4(CC(=O)N(C)C4)C[C@H]3C)cc2cc1C(=O)Nc1cnc2cccnn12 (relative stereo) [Example 71, rel-2-(5R,7R,8R)-2,7-Dimethyl-3-oxo-2-azaspiro[4.5]decan-8-yl)-N-(imidazo[1,2-b]pyridazin-3-yl)-6-methoxy-2H-indazole-5-carboxamide or rel-2-(5R,7S,8S)-2,7-Dimethyl-3-oxo-2-azaspiro[4.5]decan-8-yl)-N-(imidazo[1,2-b]pyridazin-3-yl)-6-methoxy-2H-indazole-5-carboxamide]	1.9	30
CO[C@H]1C[C@@H](Oc2cc3nn(C4CCC5(CC4)CN(C(C)=O)C5)cc3cc2C(=O)Nc2cnc3cccnn23)C1 [Example 101, 2-(2-Acetyl-2-azaspiro[3.5]nonan-7-yl)-N-(imidazo[1,2-b]pyridazin-3-yl)-6-((1s,3s)-3-methoxycyclobutoxy)-2H-indazole-5-carboxamide]	< 0.4	31
COc1cc2nn([C@@H]3CC[C@]4(CCC(=O)N4C)C[C@H]3C)cc2cc1C(=O)Nc1cnc2cccnn12 (relative stereo) [Example 123, rel-2-(5S,7R,8R)-1,7-Dimethyl-2-oxo-1-azaspiro[4.5]decan-8-yl)-N-(imidazo[1,2-b]pyridazin-3-yl)-6-methoxy-2H-indazole-5-carboxamide]	3	
C[C@H]1C[C@H](O)CC[C@@H]1n1cc2cc(C(=O)Nc3cnn4cccnc34)c(OC3CC3)cc2n1 (relative stereo) [Example 42, rel-6-Cyclopropoxy-2-(1S,2S,4R)-4-hydroxy-2-methylcyclohexyl)-N-(pyrazolo[1,5-a]pyrimidin-3-yl)-2H-indazole-5-carboxamide]		89
C[C@@]1(O)CCC[C@H](n2cc3cc(C(=O)Nc4cnn5cccnc45)c(OC4CC4)cc3n2)C1 (relative stereo) [Example 54, rel-6-cyclopropoxy-2-(1S,3R)-3-hydroxy-3-methylcyclohexyl)-N-(pyrazolo[1,5-a]pyrimidin-3-yl)-2H-indazole-5-carboxamide]		25
COc1cc2nn([C@@H]3CC[C@H](O)[C@H](C)C3)cc2cc1C(=O)Nc1cnc2cccnn12 (single isomer, unassigned) [Example 76]	2.3	
COc1cc2nn([C@H]3CC[C@@H](O)C[C@@H]3C)cc2cc1C(=O)Nc1cnn2cccnc12 (relative stereo) [Example 40]		158

More lines, in order of falling IC50 [2], values ahead:

IC50 [1] [nM]	IC50 [2] [nM]	Compound
	20	COc1cc2nn([C@H]3CC[C@H](N(C)C(=O)[C@@H]4CC[C@H](O)C4)CC3)cc2cc1C(=O)Nc1cnn2cccnc12 (relative stereo) [Example 115]
0.7	19	COc1cc2nn([C@H]3CC[C@H](n4ccnn4)CC3)cc2cc1C(=O)Nc1cnc2cccnn12 [Example 102, 2-((1r,4r)-4-(1H-1,2,3-triazol-1-yl)cyclohexyl)-N-(imidazo[1,2-b]pyridazin-3-yl)-6-methoxy-2H-indazole-5-carboxamide]
	15	COc1cc2nn([C@H]3CCC[C@H](O)[C@@H]3C)cc2cc1C(=O)Nc1cnc2cccnn12 (relative stereo) [Example 106, rel-2-(1S,2R,3S)-3-Hydroxy-2-methylcyclohexyl)-N-(imidazo[1,2-b]pyridazin-3-yl)-6-methoxy-2H-indazole-5-carboxamide]
	10	COc1cc2nn([C@H]3CC[C@H](N(C)C(=O)[C@H](C)O)CC3)cc2cc1C(=O)Nc1cnc2cccnn12 [Example 94, 2-((1S,4r)-4-((S)-2-Hydroxy-N-methylpropanamido)cyclohexyl)-N-(imidazo[1,2-b]pyridazin-3-yl)-6-methoxy-2H-indazole-5-carboxamide]
